Experimental data: the supplement of paper PMC10307832

Legend:
Assay in all cases: relative viability (nuclei count vs DMSO), 5 days (fraction); higher = more cells survive
Apatinib + Alpelisib = compound: N#CC1(c2ccc(NC(=O)c3cccnc3NCc3ccncc3)cc2)CCCC1 [Apatinib] + Cc1nc(NC(=O)N2CCC[C@H]2C(N)=O)sc1-c1ccnc(C(C)(C)C(F)(F)F)c1 [Alpelisib] (partner 2 µM)
Summary of the method: (§1)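 Lung cancer cell lines in 1536-well plates were dosed by pin tool the day after seeding, either with one drug alone or with a fixed anchor-drug dose plus five library-drug doses (not always all listed) in √10 steps. After 5 days, cells were fixed and their nuclei stained in one step (final 0.05% Triton X-100, 1% formaldehyde, 1 ug/ml Hoechst), then counted on 4× images. Relative viability is the nuclei count in treated wells divided by that in vehicle wells. Values are medians of duplicate plates.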

Apatinib + Lapatinib = compound: N#CC1(c2ccc(NC(=O)c3cccnc3NCc3ccncc3)cc2)CCCC1 [Apatinib] + CS(=O)(=O)CCNCc1ccc(-c2ccc3ncnc(Nc4ccc(OCc5cccc(F)c5)c(Cl)c4)c3c2)o1 [Lapatinib] (partner 2 µM)
Summary of the method: as §1

Metformin + Decitabine = compound: CN(C)C(=N)NC(=N)N [Metformin] + Nc1ncn([C@H]2C[C@H](O)[C@@H](CO)O2)c(=O)n1 [Decitabine] (partner 2 µM)
Summary of the method: as §1

Metformin + Vorinostat = compound: CN(C)C(=N)NC(=N)N [Metformin] + O=C(CCCCCCC(=O)Nc1ccccc1)NO [Vorinostat] (partner 1 µM)
Summary of the method: as §1

| Cell Line | relative viability (Apatinib + Alpelisib; first compound 0.08 µM) | relative viability (Apatinib + Alpelisib; first compound 0.253 µM) | relative viability (Apatinib + Alpelisib; first compound 0.8 µM) | relative viability (Apatinib + Alpelisib; first compound 2.53 µM) | relative viability (Apatinib + Alpelisib; first compound 8 µM) | relative viability (Apatinib + Lapatinib; first compound 0.08 µM) | relative viability (Apatinib + Lapatinib; first compound 0.253 µM) | relative viability (Apatinib + Lapatinib; first compound 0.8 µM) | relative viability (Apatinib + Lapatinib; first compound 2.53 µM) | relative viability (Apatinib + Lapatinib; first compound 8 µM) | relative viability (Metformin + Decitabine; first compound 10 µM) | relative viability (Metformin + Decitabine; first compound 31.62 µM) | relative viability (Metformin + Decitabine; first compound 100 µM) | relative viability (Metformin + Decitabine; first compound 1000 µM) | relative viability (Metformin + Vorinostat; first compound 10 µM) | relative viability (Metformin + Vorinostat; first compound 31.62 µM) | relative viability (Metformin + Vorinostat; first compound 100 µM) | relative viability (Metformin + Vorinostat; first compound 316.23 µM) | relative viability (Metformin + Vorinostat; first compound 1000 µM) | relative viability (Metformin + Decitabine; first compound 316.23 µM) |
| --- | --- | --- | --- | --- | --- | --- | --- | --- | --- | --- | --- | --- | --- | --- | --- | --- | --- | --- | --- | --- |
| NCI-H647 | 1.39 | 1.21 | 1.1 | 0.799 | 0.706 | 1.35 | 1.13 | 0.925 | 1.02 | 0.858 | 0.316 | 0.366 | 0.381 | 0.434 | 0.705 | 0.5 | 0.64 | 0.56 | 0.588 | – |
| NCI-H661 | 0.576 | 0.43 | 0.564 | 0.623 | 0.597 | 0.598 | 0.59 | 0.504 | 0.477 | 0.391 | 0.562 | 0.61 | 0.587 | 0.602 | 0.851 | 0.928 | 0.927 | 0.818 | 0.82 | 0.579 |
| HCC-366 | 0.417 | 0.46 | 0.4 | 0.308 | 0.265 | 1.07 | 1.14 | 0.98 | 0.979 | 1.02 | 0.288 | 0.293 | 0.306 | 0.289 | 0.201 | 0.431 | 0.282 | 0.326 | 0.472 | 0.291 |
| HOP-62 | 0.727 | – | 1.15 | 0.801 | 0.713 | 0.994 | – | 0.945 | 0.955 | 0.929 | 0.193 | 0.144 | 0.18 | 0.186 | 0.425 | 0.705 | 0.699 | 0.456 | 0.738 | 0.208 |
| A549 | 0.784 | 0.844 | 0.919 | 0.78 | 0.65 | 1.14 | 1.05 | 1.04 | 0.944 | 0.842 | 0.182 | 0.291 | 0.179 | 0.209 | – | – | – | – | – | 0.198 |
| HCC-827 | 0.999 | 0.991 | 0.831 | 0.825 | 0.469 | 0.197 | 0.177 | 0.165 | 0.19 | 0.196 | 0.321 | 0.315 | 0.312 | 0.364 | 0.483 | 0.84 | 1.02 | 0.776 | 0.943 | 0.322 |
| NCI-H1395 | 1.23 | 1.16 | 1.06 | 1.18 | 0.931 | 0.848 | 1.31 | 1.17 | 0.855 | 0.901 | 0.661 | 0.758 | 0.719 | 0.382 | 0.855 | 1.24 | 0.819 | 0.868 | 0.414 | 0.713 |
| SK-MES-1 | 0.825 | 0.928 | 0.822 | 0.929 | 0.658 | 0.473 | 0.473 | 0.512 | 0.414 | 0.502 | 0.336 | 0.291 | 0.342 | 0.361 | 0.839 | 1.03 | 1.11 | 0.919 | 0.99 | 0.34 |
| NCI-H2023 | 0.64 | 0.675 | 0.587 | 0.514 | 0.559 | 0.751 | 0.945 | 0.911 | 0.74 | 0.737 | 0.224 | 0.223 | 0.203 | 0.186 | 0.292 | 0.712 | 0.354 | 0.496 | 0.38 | 0.207 |
| NCI-H1299 | 1.06 | 1.05 | 1.03 | 1.04 | 0.929 | 0.99 | 1.01 | 0.981 | 0.938 | 0.773 | – | – | – | – | – | – | – | – | – | – |
| LCLC-97TM1 | 0.281 | 0.21 | 0.256 | 0.206 | 0.154 | 0.845 | 0.818 | 0.586 | 0.604 | 0.475 | – | 0.203 | 0.202 | 0.29 | – | 0.675 | 0.711 | 0.601 | 0.704 | 0.21 |
| NCI-H1993 | 0.779 | 0.675 | 0.703 | 0.656 | 0.654 | 0.824 | 0.749 | 0.805 | 0.866 | 0.798 | 0.616 | 0.681 | 0.672 | 0.766 | 0.585 | 0.6 | 0.646 | 0.608 | 0.921 | 0.634 |
| PC-3 [JPC-3] | 1 | 0.996 | 0.989 | 0.938 | 0.888 | 0.472 | 0.441 | 0.444 | 0.394 | 0.43 | 0.786 | 0.848 | – | 0.732 | 0.737 | 0.664 | – | 0.85 | 0.554 | 0.841 |
| NCI-H441 | 0.872 | 0.82 | 0.752 | 0.726 | 0.421 | – | – | – | – | – | – | 0.236 | 0.262 | 0.262 | – | 0.513 | 0.69 | 0.51 | 0.866 | 0.217 |
| NCI-H322M | 0.782 | 0.744 | 0.766 | 0.89 | 0.782 | 0.571 | 0.465 | 0.57 | 0.64 | 0.584 | 0.698 | 0.673 | 0.718 | 0.746 | 0.946 | 0.861 | 0.945 | 0.865 | 0.702 | 0.675 |
